Experimental findings from ChEMBL document CHEMBL2146458, “Tanshinones as selective and slow-binding inhibitors for SARS-CoV cysteine proteases” (Bioorg Med Chem, 2012) are described below.

Calls of active or inactive are those of the source. No cut-off for these calls is given here.

Protease, sequence (Q9YQ12 whole entry): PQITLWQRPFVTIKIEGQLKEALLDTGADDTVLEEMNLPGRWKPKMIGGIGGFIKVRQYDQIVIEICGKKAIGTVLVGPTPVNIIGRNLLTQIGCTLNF

One experiment concerns the target T1, Replicase polyprotein 1a (Severe acute respiratory syndrome-related coronavirus, UniProt P0C6U8).
Conditions: not given
For orientation: IC50 means the concentration that inhibits the measured activity by half. `Cc1coc2c1C(=O)C(=O)c1c-2ccc2c(C)cccc12` [TANSHINONE I]: the IC50 came to 11.5 µM.
Regarding `Cc1coc2c1C(=O)C(=O)c1c-2ccc2c1CCCC2(C)CO` (centres undefined) [TANSHINONE IIB], the IC50 came out at 18 µM.
Take `C[C@H]1COC2=C1C(=O)C(=O)c1c2ccc2c1CCCC2(C)C` [CRYPTOTANSHINONE]: half-maximal inhibition (IC50) was put at 10.1 µM.
`COC(=O)[C@@]1(C)CCCc2c1ccc1c2C(=O)C(=O)c2c(C)coc2-1` [METHYL TANSHINONATE]: the IC50 came out at 10.6 µM.

Another experiment addresses Replicase polyprotein 1a (Severe acute respiratory syndrome-related coronavirus) (UniProt P0C6U8).
Conditions: not given
Take `Cc1coc2c1C(=O)C(=O)c1c-2ccc2c(C)cccc12` [TANSHINONE I]: the inhibition entry was “Active”.
With `Cc1coc2c1C(=O)C(=O)c1c-2ccc2c1CCCC2(C)CO` (centres undefined) [TANSHINONE IIB], the inhibition entry is “Active”.
With `C[C@H]1COC2=C1C(=O)C(=O)c1c2ccc2c1CCCC2(C)C` [CRYPTOTANSHINONE], the inhibition entry was “Active”.
On the same count and under the same terms, as for `COC(=O)[C@@]1(C)CCCc2c1ccc1c2C(=O)C(=O)c2c(C)coc2-1` [METHYL TANSHINONATE], the entry is “Active”.

The target is the same in a further experiment.
Conditions: not given
This is another data set of the same source.
As to `Cc1coc2c1C(=O)C(=O)c1c-2ccc2c(C)cccc12` [TANSHINONE I], the inhibition entry is “Active”.
Consider `Cc1coc2c1C(=O)C(=O)c1c-2ccc2c1CCCC2(C)CO` (centres undefined) [TANSHINONE IIB], for which the inhibition result was “Active”.
As for `COC(=O)[C@@]1(C)CCCc2c1ccc1c2C(=O)C(=O)c2c(C)coc2-1` [METHYL TANSHINONATE], the inhibition entry was “Active”.

For a further experiment the target is unchanged. As to conditions: 200 uM.
Take `COC(=O)[C@@]1(C)CCCc2c1ccc1c2C(=O)C(=O)c2c(C)coc2-1` [METHYL TANSHINONATE]: the inhibition entry is “inactive”.

The target is the same in the next experiment.
Conditions: not given
This is another data set of the same source.
For `Cc1coc2c1C(=O)C(=O)c1c-2ccc2c(C)cccc12` [TANSHINONE I], the inhibition entry was “Dose-dependent effect”.
On the same count and under the same terms, as for `Cc1coc2c1C(=O)C(=O)c1c-2ccc2c1CCCC2(C)CO` (centres undefined) [TANSHINONE IIB], the entry is “Dose-dependent effect”; as for `COC(=O)[C@@]1(C)CCCc2c1ccc1c2C(=O)C(=O)c2c(C)coc2-1` [METHYL TANSHINONATE], “Dose-dependent effect”.

For the next experiment, the target named is T1, Replicase polyprotein 1a.
Conditions: not given
This is another data set of the same source.
As to `Cc1coc2c1C(=O)C(=O)c1c-2ccc2c(C)cccc12` [TANSHINONE I], half-maximal inhibition (IC50) required 38.7 µM.
As for `Cc1coc2c1C(=O)C(=O)c1c-2ccc2c1CCCC2(C)CO` (centres undefined) [TANSHINONE IIB], it took 24.8 µM to reach half-maximal inhibition (IC50).
Same read-out and setting: to `C[C@H]1COC2=C1C(=O)C(=O)c1c2ccc2c1CCCC2(C)C` [CRYPTOTANSHINONE] belongs 227 µM.
Same read-out and setting: to `COC(=O)[C@@]1(C)CCCc2c1ccc1c2C(=O)C(=O)c2c(C)coc2-1` [METHYL TANSHINONATE] belongs 21.1 µM.

A further experiment has as its target Replicase polyprotein 1a (Severe acute respiratory syndrome-related coronavirus) (UniProt P0C6U8). As to conditions: 1 to 100 uM.
As to `Cc1coc2c1C(=O)C(=O)c1c-2ccc2c(C)cccc12` [TANSHINONE I], the inhibition result was “inactive”.
Take `Cc1coc2c1C(=O)C(=O)c1c-2ccc2c1CCCC2(C)CO` (centres undefined) [TANSHINONE IIB]: the inhibition entry was “inactive”.
With `COC(=O)[C@@]1(C)CCCc2c1ccc1c2C(=O)C(=O)c2c(C)coc2-1` [METHYL TANSHINONATE], the inhibition entry is “inactive”.

The next experiment addresses Protease (Human immunodeficiency virus 1, UniProt Q9YQ12). The experiment is described as follows: Inhibition of Human immunodeficiency virus 1 protease preincubated for 10 mins by FRET assay.
Conditions: not given
`Cc1coc2c1C(=O)C(=O)c1c-2ccc2c(C)cccc12` [TANSHINONE I] registered an IC50 of 45.9 µM.
On the same count and under the same terms, as for `C[C@H]1COC2=C1C(=O)C(=O)c1c2ccc2c1CCCC2(C)C` [CRYPTOTANSHINONE], the figure is 69.6 µM.
On the same count and under the same terms, as for `COC(=O)[C@@]1(C)CCCc2c1ccc1c2C(=O)C(=O)c2c(C)coc2-1` [METHYL TANSHINONATE], the figure is 103 µM.

In a further experiment the target is Replicase polyprotein 1a (Severe acute respiratory syndrome-related coronavirus) (UniProt P0C6U8). The following applies: TDE = time-dependent effect.
Regarding `Cc1coc2c1C(=O)C(=O)c1c-2ccc2c(C)cccc12` [TANSHINONE I], the inhibition entry is “tde”.
As for `Cc1coc2c1C(=O)C(=O)c1c-2ccc2c1CCCC2(C)CO` (centres undefined) [TANSHINONE IIB], the inhibition result was “tde”.
The same measure, in the same setting: to `C[C@H]1COC2=C1C(=O)C(=O)c1c2ccc2c1CCCC2(C)C` [CRYPTOTANSHINONE] belongs “tde”; to `COC(=O)[C@@]1(C)CCCc2c1ccc1c2C(=O)C(=O)c2c(C)coc2-1` [METHYL TANSHINONATE], “tde”.

In another experiment the target is T2, Papain (Carica papaya) (UniProt P00784).
T2 sequence (whole entry): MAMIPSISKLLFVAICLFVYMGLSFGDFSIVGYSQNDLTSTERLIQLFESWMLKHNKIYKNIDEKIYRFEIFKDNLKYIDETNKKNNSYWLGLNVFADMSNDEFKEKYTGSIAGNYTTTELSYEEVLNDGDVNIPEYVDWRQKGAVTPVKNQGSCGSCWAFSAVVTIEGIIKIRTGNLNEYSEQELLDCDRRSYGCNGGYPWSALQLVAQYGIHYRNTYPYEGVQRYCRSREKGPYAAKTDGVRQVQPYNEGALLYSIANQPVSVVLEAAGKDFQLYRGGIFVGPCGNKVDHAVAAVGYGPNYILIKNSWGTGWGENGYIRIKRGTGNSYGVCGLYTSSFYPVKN
Description: Inhibition of papaya papain using N-alpha-benzoyl-L-arginine-pnitroanilide as substrate at 200 uM after 5 mins.
Conditions: not given
For the compound `Cc1coc2c1C(=O)C(=O)c1c-2ccc2c(C)cccc12` [TANSHINONE I], the inhibition entry is “inactive”.
With `Cc1coc2c1C(=O)C(=O)c1c-2ccc2c1CCCC2(C)CO` (centres undefined) [TANSHINONE IIB], the inhibition entry was “inactive”.
For the compound `COC(=O)[C@@]1(C)CCCc2c1ccc1c2C(=O)C(=O)c2c(C)coc2-1` [METHYL TANSHINONATE], the inhibition entry is “inactive”.

The target in a further experiment is Replicase polyprotein 1a (Severe acute respiratory syndrome-related coronavirus) (UniProt P0C6U8).
Conditions: not given
The source holds these as a separate data set.
Take `C[C@H]1COC2=C1C(=O)C(=O)c1c2ccc2c1CCCC2(C)C` [CRYPTOTANSHINONE]: the inhibition result is “Dose-dependent effect”.

The next experiment has as its target T3, Papain (Carica papaya, UniProt P00784).
T3 sequence (P00784 whole entry): T2 sequence (whole entry)
The experiment is described as follows: Inhibition of papaya papain using N-alpha-benzoyl-L-arginine-pnitroanilide as substrate after 5 mins.
Conditions: not given
Consider `C[C@H]1COC2=C1C(=O)C(=O)c1c2ccc2c1CCCC2(C)C` [CRYPTOTANSHINONE], for which the IC50 amounted to 89.8 µM.

System in another experiment: not listed separately
The experiment is described as follows: Inhibition of chymotrypsin using N-benzoyl-L-tyrosine ethyl ester as substrate assessed as benzoyl-tyrosine production measured every 10 seconds for 6 mins.
Conditions: not given
With `Cc1coc2c1C(=O)C(=O)c1c-2ccc2c(C)cccc12` [TANSHINONE I], the IC50 was determined as 103 µM.
On to `C[C@H]1COC2=C1C(=O)C(=O)c1c2ccc2c1CCCC2(C)C` [CRYPTOTANSHINONE], for which the IC50 came to 120 µM.
On the same count and under the same terms, to `COC(=O)[C@@]1(C)CCCc2c1ccc1c2C(=O)C(=O)c2c(C)coc2-1` [METHYL TANSHINONATE] belongs 124 µM.

A further experiment addresses T1, Replicase polyprotein 1a. As to conditions: read-out: Ki(app).
In the case of `Cc1coc2c1C(=O)C(=O)c1c-2ccc2c(C)cccc12` [TANSHINONE I], the Ki was found to be 13.7 µM.
Still for that read-out and setting: to `Cc1coc2c1C(=O)C(=O)c1c-2ccc2c1CCCC2(C)CO` (centres undefined) [TANSHINONE IIB] belongs 21.6 µM; to `C[C@H]1COC2=C1C(=O)C(=O)c1c2ccc2c1CCCC2(C)C` [CRYPTOTANSHINONE], 9 µM.
With `COC(=O)[C@@]1(C)CCCc2c1ccc1c2C(=O)C(=O)c2c(C)coc2-1` [METHYL TANSHINONATE], the Ki was found to be 9.7 µM.

Another experiment concerns the target T1, Replicase polyprotein 1a.
Conditions: not given
The source holds these as a separate data set.
Consider `Cc1coc2c1C(=O)C(=O)c1c-2ccc2c(C)cccc12` [TANSHINONE I], for which it took 8.8 µM to reach half-maximal inhibition (IC50).
Same read-out and setting: to `Cc1coc2c1C(=O)C(=O)c1c-2ccc2c1CCCC2(C)CO` (centres undefined) [TANSHINONE IIB] belongs 10.7 µM; to `C[C@H]1COC2=C1C(=O)C(=O)c1c2ccc2c1CCCC2(C)C` [CRYPTOTANSHINONE], 0.8 µM; to `COC(=O)[C@@]1(C)CCCc2c1ccc1c2C(=O)C(=O)c2c(C)coc2-1` [METHYL TANSHINONATE], 9.2 µM.

The target of another experiment is Protease (Human immunodeficiency virus 1) (UniProt Q9YQ12). Description: Inhibition of Human immunodeficiency virus 1 protease at 200 uM preincubated for 10 mins by FRET assay.
Protease (Human immunodeficiency virus 1), sequence (Q9YQ12 as listed by the source): as the sequence (Q9YQ12 whole entry) above
Conditions: not given
Turning to `Cc1coc2c1C(=O)C(=O)c1c-2ccc2c1CCCC2(C)CO` (centres undefined) [TANSHINONE IIB], the inhibition result is “inactive”.

System in the next experiment: not listed separately
The experiment is described as follows: Inhibition of chymotrypsin using N-benzoyl-L-tyrosine ethyl ester as substrate assessed as benzoyl-tyrosine production at 200 uM measured every 10 seconds for 6 mins.
Conditions: not given
As to `Cc1coc2c1C(=O)C(=O)c1c-2ccc2c1CCCC2(C)CO` (centres undefined) [TANSHINONE IIB], the inhibition result is “inactive”.

In the next experiment the target is T1, Replicase polyprotein 1a.
Conditions: not given
The source holds these as a separate data set.
The compound `Cc1coc2c1C(=O)C(=O)c1c-2ccc2c(C)cccc12` [TANSHINONE I] displayed an IC50 of 0.7 µM.
The same measure, in the same setting: as for `Cc1coc2c1C(=O)C(=O)c1c-2ccc2c1CCCC2(C)CO` (centres undefined) [TANSHINONE IIB], the figure is 52 µM; as for `C[C@H]1COC2=C1C(=O)C(=O)c1c2ccc2c1CCCC2(C)C` [CRYPTOTANSHINONE], 87.6 µM.

The next experiment concerns the target Replicase polyprotein 1a (Severe acute respiratory syndrome-related coronavirus) (UniProt P0C6U8).
Conditions: not given
The source holds these as a separate data set.
For the compound `Cc1coc2c1C(=O)C(=O)c1c-2ccc2c(C)cccc12` [TANSHINONE I], the inhibition entry is “Active”.
Same read-out and setting: to `Cc1coc2c1C(=O)C(=O)c1c-2ccc2c1CCCC2(C)CO` (centres undefined) [TANSHINONE IIB] belongs “Active”.
In the case of `C[C@H]1COC2=C1C(=O)C(=O)c1c2ccc2c1CCCC2(C)C` [CRYPTOTANSHINONE], the inhibition result was “Active”.
Consider `COC(=O)[C@@]1(C)CCCc2c1ccc1c2C(=O)C(=O)c2c(C)coc2-1` [METHYL TANSHINONATE], for which the inhibition result is “Active”.
